The text below walks through data of publication PMC9569954, “The Antidepressant-like Activity, Effects on Recognition Memory Deficits, Bioavailability, and Safety after Chronic Administration of New Dual-Acting Small Compounds Targeting Neuropsychiatric Symptoms in Dementia” (International Journal of Molecular Sciences, 2022).

One series has as its system Bdnf gene. The experiment in a line: Bdnf gene expression in brain structures (RT-qPCR, ex vivo). Also on record: species or system rats. The conditions noted are these: rat, 1 mg/kg/day i.p., 21 days; for Bdnf expression upregulation vs control, hippocampus: hippocampus (Hipp); for Bdnf expression upregulation vs control, prefrontal cortex: prefrontal cortex (PFX). The protocol: Animals in all treatment groups were sacrificed by rapid decapitation immediately after the behavioral tests, when the brains and blood samples were collected. For quantitative reverse transcription-polymerase chain reaction (RT-qPCR), the brains of rats were rapidly removed, and the hippocampus and prefrontal cortex were dissected on an ice-cold glass plate. The tissues were frozen in dry ice and stored at −80 °C until required.
The total RNA was extracted from tissues using an RNA Isolation kit (Thermo Fisher Scientific, Rockford, IL, USA), and its concentration was normalized to 20 ng/μL. Reverse transcription was performed with a High-Capacity Reverse Transcription Kit (Life Technologies, Grand Island, NY, USA). A qPCR fast 96-well reaction plate was used for the process with TaqMan Gene Expression assay (Life Technologies) for brain-derived neurotrophic factor Bdnf (Rn02531967_s1) on an Applied Biosystems® 7500 Fast Real-Time PCR Instrument (Applied Biosystems, Foster City, CA, USA), according to the manufacturer’s protocol. Glyceraldehyde-3-phosphate dehydrogenase, Gapdh (Rn01775763_g1), was selected as endogenous control, based on the pilot experiment. Relative normalized expression was calculated using the ΔΔCq method.

Series [1] is described as follows: MTT cytotoxicity on normal human dermal fibroblast cells. The conditions noted are these: NHDF cells (normal human dermal fibroblasts), highest tested concentration (75 μM), read-out: cell viability. The class given is cell-based. From the text:
Alpha-MEM and the normal human dermal fibroblast cell line (NHDF) were obtained from Lonza (Lonza, Warsaw, Poland). Phosphate-buffered saline (PBS), fetal bovine serum (FBS), L-glutamine, and 100× antibiotic–antimycotic were from Cytogene (Zgierz, Poland). MTT (3-(4,5-dimethylthiazol-2-yl)-2,5-diphenyltetrazolium bromide) was from Sigma-Aldrich (Poznan, Poland) and DMSO was purchased from Archem (Kamieniec Wroclawski, Poland).
The viability of NHDF cells after treatment with PQA-AZ4 and PQA-AZ-6 was assayed using the previously described methodology. Briefly, 4.5 × 10^3 cells/well were seeded into a 96-multiwell plate and viability was evaluated using the MTT assay. Different volumes of each compound dissolved in DMSO (final concentrations 4.68, 9.37, 18.75, 37.5, and 75 μM, respectively), as well as DMSO itself as solvent control, were added to each well, mixed, and incubated for 48 h. Finally, the optical density was measured at 560 nm with a reference wavelength of 670 nm using an Asys UVM 340 Microplate Reader (Cambridge, UK). Results were expressed as the percentage of survival cells concerning the control (not treated cells).

In a further series the test system is PDE10A. Also noted: method as in PMID 35248836. To be noted: read-out: Inhibition PDE10A IC50; cited from earlier work.
Series [2] in a line: Serum glucose, triglyceride and cholesterol concentrations. It is filed as in vivo, rats. The conditions noted are these: rat, 1 mg/kg/day i.p., 21 days. On the procedure:
(§1) The blood samples were collected immediately after decapitation and then centrifuged at 600× g […], 4 °C, to separate the plasma. The blood was used to determine metabolic parameters such as glucose, cholesterol, and triglyceride levels, together with liver enzymatic activity.
Standard enzymatic spectrophotometric tests (Biomaxima S.A., Lublin, Poland) were used to determine glucose, cholesterol, and triglyceride levels in the serum. In the presence of an appropriate enzyme, the substrate was converted to a colored compound. Absorbance was measured at a wavelength of 500 nm.

Series [3] in a line: Liver enzymatic activity in serum (AlaT, AspaT, γGTP, ALP). It is filed as in vivo, rats. The conditions noted are these: rat, 1 mg/kg/day i.p.; for activity of AlaT, AspaT, γGTP, ALP in serum: three-week administration. On the procedure: as §1
To determine alanine aminotransferase (AlaT), […] (AspaT), alkaline phosphatase (ALP), or gamma-glutamyl transpeptidase (γGTP) activities in the serum, a standard enzymatic spectrophotometric test (Biomaxima S.A., Lublin, Poland) was used. Absorbance was measured at a wavelength of 340 nm (AlaT, AspaT) or 405 nm (ALP, γGTP).

The target in series [4] is 5-HT1AR. Also noted: method as in PMID 35248836. The conditions noted are these: read-out: Affinity 5-HT1AR Ki; cited from earlier work.
The test system of the next series is rats. The experiment in a line: 18-hour spontaneous activity monitoring. The conditions noted are these: rat, 1 mg/kg/day i.p. It is filed as in vivo, male Wistar rats. The protocol: Spontaneous activity was measured on the 20th day of the treatment with a special, innovative, radio-frequency identification system (RFID-system), TraffiCage (TSE-Systems, Bad Homburg, Germany). The test was conducted according to the method described previously. The animals had RFID transmitters implanted subcutaneously, which tracked the time they spent in different areas of the cage.

Series [5] has as its system 5-HT1AR. Also noted: method as in PMID 35248836. To be noted: cited from earlier work.
In another series the target is 5-HT7R. Also on record: method as in PMID 35248836. To be noted: read-out: Affinity 5-HT7R Ki; cited from earlier work.
Series [6] deals with (+)-MK-801-induced memory deficits. The experiment in a line: Novel object recognition (NOR) test in (+)-MK-801 treated rats. The conditions noted are these: rat; for Total Exploratory Time in T2 Session: vehicle 49.67 ± 4.63; for effect on (+)-MK-801-induced recognition memory deficits (discrimination index): 21 days, (+)-MK-801 0.1 mg/kg i.p. It is filed as in vivo, male Wistar rats. On the procedure: The rats were injected with the respective compounds for 21 consecutive days at the minimum active doses selected previously, based on acute treatment and assessment in the NOR test. The protocol for the NOR test was adapted from the original work and the test was performed according to the previously described protocol, 24 h after the last injection of the investigated compound. The discrimination index (DI) was calculated according to the formula:(7) DI=(EB−EA)/(EA+EB) where EB is the exploration time of novel object during the T2 session and EA is the exploration time of […].
PQA-AZ4 and PQA-AZ-6 were administered for 60 and 30 min, respectively, before the T1 phase (the familiarization phase). MK-801 was used to attenuate learning and was administered at a dose of 0.1 mg/kg (i.p.) 30 min before the familiarization phase (T1). The total exploration time in T2 was used to determine the influence of the treatment on the exploratory activity of the animals.

A word on the viability: it is the share of living cells, or the viability signal relative to a control. As usually defined, the IC50 is the concentration that inhibits the measured activity by half. The Ki is a measure of affinity in units of concentration, obtained from inhibition or displacement.

As to `COc1cccc(N2CCN(CC3CCN(c4ncnc5cc(OC)c(OC)cc45)C3)CC2)c1` (stereo not shown) [PQA-AZ4, 6,7-Dimethoxy-4-(3-((4-(3-methoxyphenyl)piperazin-1-yl)methyl)pyrrolidin-1-yl)quinazoline], in the series with Bdnf gene, the “Bdnf expression upregulation vs control, hippocampus” value is listed as “about 2.8 fold” and the “Bdnf expression upregulation vs control, prefrontal cortex” value is listed as “about 10 fold”. Besides, the viability at 48 h, 75 µM in [1] was 19.9%. For the same compound, the IC50 with PDE10A was 7070 nM. Besides, in series [2], the “serum glucose concentration vs vehicle” value is listed as “did not significantly change”, the “serum triglycerides concentration vs vehicle” value is on record as “did not significantly change” and the “total cholesterol concentration vs vehicle” value was “slight but statistically significant (p < 0.05) increase”. Also, the “activity of AlaT, AspaT, γGTP, ALP in serum” value in series [3] is “no significant changes”. The Ki at 5-HT1AR [4] was 18 nM. For the same compound, in the series with rats (five and six hours after 20-day administration), the “spontaneous activity vs vehicle” value is recorded as “increased”. Also, the “Functional profile at 5-HT1AR” value in the series on 5-HT1AR [5] is “partial agonists”. For the same compound, the Ki at 5-HT7R is 234 nM. In series [6] (1 mg/kg/day i.p. 21 days + (+)-MK-801 0.1 mg/kg), the “Total Exploratory Time in T2 Session” value is on record as 28.83 ± 2.50 p < 0.01 vs. veh; p < 0.05 vs. (+)-MK-801 F(2,16) = 7.3773; p < 0.01. Besides, the “effect on (+)-MK-801-induced recognition memory deficits (discrimination index)” value in series [6] (1 mg/kg/day i.p.) is “restored recognition memory deficits”.

On to `COc1cc2ncnc(N3CCC(CN4CCN(c5ccc(Cl)cc5)CC4)C3)c2cc1OC` (stereo not shown) [PQA-AZ6, 4-(3-((4-(4-Chlorophenyl)piperazin-1-yl)methyl)pyrrolidin-1-yl)-6,7-dimethoxyquinazoline], for which, in the series on Bdnf gene, the “Bdnf expression upregulation vs control, hippocampus” value is “about 33 fold” and the “Bdnf expression upregulation vs control, prefrontal cortex” value is listed as about 12 fold. Besides, the viability at 48 h, 75 µM in [1] was 84%. In addition, the IC50 in the series with PDE10A is 5680 nM. Further, in series [2], the “serum glucose concentration vs vehicle” value is given as “did not significantly change” and the “serum triglycerides concentration vs vehicle” value is listed as “did not significantly change”. For the same compound, the “γGTP activity in serum vs control” value in [3] (21 days) is on record as “significantly lower”. For the same compound, in series [3], the “activity of AlaT, AspaT, γGTP, ALP in serum” value is listed as “no significant changes”. Besides, the Ki at 5-HT1AR [4] is 346 nM. Further, the “spontaneous activity vs vehicle” value in the series with rats (eighteen hours after 20-day administration) was “decreased”. Moreover, the “Functional profile at 5-HT1AR” value in the series with 5-HT1AR [5] is given as “partial agonists”. Further, the Ki on 5-HT7R is 136 nM. The “Total Exploratory Time in T2 Session” value in series [6] (3 mg/kg/day i.p. 21 days + (+)-MK-801 0.1 mg/kg) is 39.57 ± 4.39 F(2,17) = 1.3060; NS s. In series [6] (3 mg/kg/day i.p.), the “effect on (+)-MK-801-induced recognition memory deficits (discrimination index)” value is on record as “restored recognition memory deficits”.
